Laboratory results: patent US11090308B2, “Methods of treating liver disorders or lipid disorders with a THR-beta agonist” (Madrigal Pharmaceuticals, Inc., priority 2016, dated 2021)
Like-named read-outs stand apart in the source and are kept apart here.

What was measured:
[1] = in vitro; type: in vitro ADME, all species; details: plasma
Text: (§1) The following studies have been conducted: (a) in vitro drug protein binding, transporter (organic anion transporting polypeptide [OATP], P-glycoprotein [P-gp], breast cancer-related protein [BCRP], and multiple drug resistance protein 1 [MDR1]), and cytochrome P-450 enzyme assays to investigate absorption, distribution, and excretion; (b) in vivo MGL-3196 rat and dog oral PK and bioavailability studies; (c) in vivo ^14C-MGL-3196 rat and dog oral pharmacokinetics, absorption, excretion, and tissue distribution by quantitative whole-body autoradiography (QWBA) studies; and (d) liver disposition of MGL-3196 using an in vitro sandwiched hepatocyte model system (B-CLEAR® technology) in dog (SCDH) and human (SCHH) hepatocytes.

[2] = target: T1, BCRP (Homo sapiens, UniProt Q9UNQ0); assay: In vitro drug transporter assay, BCRP; type: in vitro ADME
T1 sequence (Q9UNQ0 1-655): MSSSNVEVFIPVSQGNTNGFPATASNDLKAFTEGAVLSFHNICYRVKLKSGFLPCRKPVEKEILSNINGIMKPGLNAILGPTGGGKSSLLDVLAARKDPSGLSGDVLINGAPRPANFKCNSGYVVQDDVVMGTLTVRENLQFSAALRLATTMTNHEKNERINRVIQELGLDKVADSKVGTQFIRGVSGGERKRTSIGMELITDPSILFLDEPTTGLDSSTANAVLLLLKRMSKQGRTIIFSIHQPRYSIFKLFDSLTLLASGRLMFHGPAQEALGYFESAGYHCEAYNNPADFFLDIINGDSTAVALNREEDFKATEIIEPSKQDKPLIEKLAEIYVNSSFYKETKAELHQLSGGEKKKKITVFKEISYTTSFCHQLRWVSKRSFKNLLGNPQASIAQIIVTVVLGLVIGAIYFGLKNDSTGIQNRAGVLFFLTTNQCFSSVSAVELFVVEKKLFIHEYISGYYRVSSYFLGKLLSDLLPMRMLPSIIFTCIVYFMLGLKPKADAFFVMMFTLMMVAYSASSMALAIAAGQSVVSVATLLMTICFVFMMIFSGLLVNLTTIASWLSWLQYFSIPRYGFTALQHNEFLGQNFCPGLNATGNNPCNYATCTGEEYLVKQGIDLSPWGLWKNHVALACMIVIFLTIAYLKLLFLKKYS
Text: as §1

[3] = target: BSEP (Homo sapiens, UniProt O95342); assay: In vitro drug transporter assay, BSEP; type: in vitro ADME; details: BSEP-mediated transport of TCA; read-out: Inhibitor of: BSEP, IC50
BSEP, sequence (O95342 whole entry, species assumed): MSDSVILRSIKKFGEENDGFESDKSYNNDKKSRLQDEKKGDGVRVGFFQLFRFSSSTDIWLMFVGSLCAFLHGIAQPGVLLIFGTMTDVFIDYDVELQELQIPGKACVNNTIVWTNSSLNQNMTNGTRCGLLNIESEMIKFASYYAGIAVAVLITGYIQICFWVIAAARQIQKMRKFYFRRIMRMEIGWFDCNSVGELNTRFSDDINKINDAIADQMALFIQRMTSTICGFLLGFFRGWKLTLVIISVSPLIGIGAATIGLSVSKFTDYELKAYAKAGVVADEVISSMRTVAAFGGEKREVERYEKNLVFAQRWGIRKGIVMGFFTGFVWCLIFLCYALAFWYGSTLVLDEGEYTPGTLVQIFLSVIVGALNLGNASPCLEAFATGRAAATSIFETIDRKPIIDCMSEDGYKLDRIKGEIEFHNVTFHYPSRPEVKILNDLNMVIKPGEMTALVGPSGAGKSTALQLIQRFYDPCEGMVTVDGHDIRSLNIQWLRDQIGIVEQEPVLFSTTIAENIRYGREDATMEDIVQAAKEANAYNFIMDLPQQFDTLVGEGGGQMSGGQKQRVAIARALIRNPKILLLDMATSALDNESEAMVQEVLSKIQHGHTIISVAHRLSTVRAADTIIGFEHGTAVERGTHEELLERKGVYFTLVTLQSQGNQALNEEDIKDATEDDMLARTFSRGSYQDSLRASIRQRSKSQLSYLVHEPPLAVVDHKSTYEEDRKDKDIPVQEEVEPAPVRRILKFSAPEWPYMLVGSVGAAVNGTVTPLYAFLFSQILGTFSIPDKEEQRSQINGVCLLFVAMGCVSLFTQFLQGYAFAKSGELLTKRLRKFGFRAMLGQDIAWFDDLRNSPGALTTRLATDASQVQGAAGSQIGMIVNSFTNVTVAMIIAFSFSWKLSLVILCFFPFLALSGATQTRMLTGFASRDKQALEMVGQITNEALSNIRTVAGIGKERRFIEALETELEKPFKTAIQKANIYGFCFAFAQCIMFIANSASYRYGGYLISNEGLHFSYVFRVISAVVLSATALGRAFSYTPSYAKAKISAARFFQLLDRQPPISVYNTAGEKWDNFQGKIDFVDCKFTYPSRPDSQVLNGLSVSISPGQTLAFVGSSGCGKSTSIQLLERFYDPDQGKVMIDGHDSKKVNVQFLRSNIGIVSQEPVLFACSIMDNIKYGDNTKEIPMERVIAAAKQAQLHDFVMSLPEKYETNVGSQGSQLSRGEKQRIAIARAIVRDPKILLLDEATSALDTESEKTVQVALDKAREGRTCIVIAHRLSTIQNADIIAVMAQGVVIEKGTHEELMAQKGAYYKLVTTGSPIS

[4] = target: T2, OCT2 (Homo sapiens, UniProt O15244); assay: In vitro drug transporter assay, OCT2; type: in vitro ADME
T2 sequence (O15244 1-555): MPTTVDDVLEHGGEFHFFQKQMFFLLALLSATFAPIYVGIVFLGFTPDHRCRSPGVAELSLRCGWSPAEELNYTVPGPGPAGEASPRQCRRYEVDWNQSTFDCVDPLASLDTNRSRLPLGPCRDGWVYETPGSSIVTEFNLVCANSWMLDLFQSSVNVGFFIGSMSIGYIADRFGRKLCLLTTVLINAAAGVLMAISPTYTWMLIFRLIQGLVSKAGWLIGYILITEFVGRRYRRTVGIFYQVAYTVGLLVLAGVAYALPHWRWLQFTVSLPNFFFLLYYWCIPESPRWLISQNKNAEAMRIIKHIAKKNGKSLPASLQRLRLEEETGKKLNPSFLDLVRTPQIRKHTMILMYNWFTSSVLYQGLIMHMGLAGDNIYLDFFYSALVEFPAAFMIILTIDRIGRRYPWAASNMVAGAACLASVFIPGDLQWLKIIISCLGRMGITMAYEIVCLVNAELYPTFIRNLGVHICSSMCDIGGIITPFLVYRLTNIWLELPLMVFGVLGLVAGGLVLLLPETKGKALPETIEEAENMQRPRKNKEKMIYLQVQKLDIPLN

[5] = target: T3, CYP2A6 (Homo sapiens, UniProt P11509); assay: In vitro Cytochrome P-450 enzyme assay, CYP2A6; type: in vitro ADME
T3 sequence (P11509 1-494): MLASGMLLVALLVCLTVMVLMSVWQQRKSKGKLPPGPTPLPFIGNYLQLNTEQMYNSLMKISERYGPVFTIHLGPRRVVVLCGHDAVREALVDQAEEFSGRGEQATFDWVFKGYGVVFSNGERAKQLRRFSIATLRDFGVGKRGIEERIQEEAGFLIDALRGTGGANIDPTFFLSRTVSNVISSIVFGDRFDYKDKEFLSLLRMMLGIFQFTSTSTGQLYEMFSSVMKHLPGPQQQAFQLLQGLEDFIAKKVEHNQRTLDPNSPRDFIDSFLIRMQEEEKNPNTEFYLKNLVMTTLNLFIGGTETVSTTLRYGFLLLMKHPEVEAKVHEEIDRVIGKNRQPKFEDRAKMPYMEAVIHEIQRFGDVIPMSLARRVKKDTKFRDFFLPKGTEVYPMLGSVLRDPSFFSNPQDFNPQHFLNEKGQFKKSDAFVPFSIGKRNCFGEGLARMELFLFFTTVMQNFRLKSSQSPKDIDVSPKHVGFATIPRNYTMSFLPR
Text: as §1

[6] = Rat oral PK and bioavailability studies; type: in vivo
Text: as §1
(§2) Rat & Dog PK/Bioavailability Studies were also performed.

[7] = Dog oral PK and bioavailability studies; type: in vivo
Text: as §1, §2

[8] = Dog liver, bile, plasma distribution; type: in vivo; details: for concentration at 4 h: Beagle, po; for concentration at 4 h / Concentration in Bile: 4 hours after single daily 100 mg/kg oral doses for four days
Text: Tables 2A-2B show ^14C-MGL-3196 dog ADME study design.

CC(C)c1cc(Oc2c(Cl)cc(-n3nc(C#N)c(=O)[nH]c3=O)cc2Cl)n[nH]c1=O [MGL-3196, 2-(3,5-dichloro-4-((5-isopropyl-6-oxo-1,6-dihydropyridazin-3-yl)oxy)phenyl)-3,5-dioxo-2,3,4,5-tetrahydro-1,2,4-triazine-6-carbonitrile]
fraction unbound [1]: < 0.01 | Substrate for: BCRP [2]: BCRP | Inhibitor of: BCRP, % inhibition ([2]; @ 25 uM genistein): 3-sulfate; 24% @ 25 uM genistein) | IC50 ([2]; for Estrone-3-sulfate, read-out: Inhibitor of: BCRP, IC50): 27.4 µM | IC50 [3]: 34.7 µM | Inhibitor of: OCT2 [4]: not an inhibitor | Inhibitor of: CYP2A6 [5]: not an inhibitor | bioavailability ([6]; rat, plasma, po): 45 to 98% | half-life ([6]; rat, plasma, rats, oral dosing, read-out: mean elimination half-life): 2.5 to 7 h | time of maximum plasma concentrations ([6]; rats, oral dosing): 2 to 6 h | bioavailability ([7]; dog, plasma, po): 11 to 135% | half-life ([7]; dog, plasma, dogs, oral dosing, read-out: mean elimination half-life): 3 to 5.5 h | time of maximum plasma concentrations ([7]; dogs, oral dosing): 1 to 8 h | concentration at 4 h ([8]; dog, hepatic portal vein plasma, 100 mg/kg, Dog 1, read-out: Concentration in Hepatic Portal Vein Plasma): 18.8 µg/mL | concentration at 4 h ([8]; dog, hepatic portal vein plasma, 100 mg/kg, Dog 2, read-out: Concentration in Hepatic Portal Vein Plasma): 86.6 µg/mL | concentration at 4 h ([8]; dog, hepatic portal vein plasma, 100 mg/kg, Dog 3, read-out: Concentration in Hepatic Portal Vein Plasma): 98.6 µg/mL | concentration at 4 h ([8]; dog, hepatic portal vein plasma, 100 mg/kg, Mean, read-out: Concentration in Hepatic Portal Vein Plasma): 68 µg/mL | concentration at 4 h ([8]; dog, liver, 100 mg/kg, Dog 1, read-out: Concentration in Liver): 129000 ng/g | concentration at 4 h ([8]; dog, liver, 100 mg/kg, Dog 2, read-out: Concentration in Liver): 319000 ng/g | concentration at 4 h ([8]; dog, liver, 100 mg/kg, Dog 3, read-out: Concentration in Liver): 210000 ng/g | concentration at 4 h ([8]; dog, liver, 100 mg/kg, Mean, read-out: Concentration in Liver): 219000 ng/g | concentration at 4 h ([8]; dog, systemic plasma, 100 mg/kg, Dog 1, read-out: Concentration in Systemic Plasma): 16.7 µg/mL | concentration at 4 h ([8]; dog, systemic plasma, 100 mg/kg, Dog 2, read-out: Concentration in Systemic Plasma): 81.5 µg/mL | concentration at 4 h ([8]; dog, systemic plasma, 100 mg/kg, Dog 3, read-out: Concentration in Systemic Plasma): 115 µg/mL | concentration at 4 h ([8]; dog, systemic plasma, 100 mg/kg, Mean, read-out: Concentration in Systemic Plasma): 71.1 µg/mL | Concentration in Bile ([8]; Dog 1): 26,400,000 ng/mL | Concentration in Bile ([8]; Dog 2): 10,400,000 ng/mL | Concentration in Bile ([8]; Dog 3): 15,500,000 ng/mL | Concentration in Bile ([8]; Mean): 17,400,000 ng/mL | Kp at 4 h ([8]; bile versus plasma, oral, 100 mg/kg, dog, 4 h post-dose, read-out: concentration in bile higher than in plasma): ~250 | concentration in bile higher than in liver ([8]; dog, 4 h post-dose): ~80 × | Kp at 4 h ([8]; liver versus plasma, oral, dog, 4 h, 100 mg/kg, read-out: liver to plasma ratio): 3.1 | Kp at 24 h ([8]; liver versus plasma, oral, dog, 24 h, 100 mg/kg, read-out: liver to plasma ratio): 267
